Measured values as given in publication PMC4710912, “High Proteolytic Resistance of Spider-Derived Inhibitor Cystine Knots” (International Journal of Peptides, 2015).
“Also recorded” adds a separate entry of the source. Where two headings read alike, the source gives them in different places. Bridge positions count the residues as written; N and C are the ends. Peptide text beside a SMILES is read from it.

What was measured:
α-chymotrypsin = α-chymotrypsin (Bos taurus, UniProt P00766); assay: in vitro; settings: pH 8
Protocol: (§1) Human prolactin releasing peptide (hPRP) was used to show a non-ICK example which contains evenly spaced multiple enzyme cleavage sites. […] To mimic gastric degradation of peptides, 10 μL 100 ng/μL pepsin was mixed with 50 μL 100 ng/μL peptides in 1.5 mL tubes containing 20 μL 1 M glycine (pH2.0) and 20 μL distilled water. To study intestinal degradation of peptides, 10 μL 100 ng/μL trypsin was mixed with 50 μL 100 ng/μL peptides in 1.5 mL tubes containing 10 μL 500 mM Tris-HCl (pH8.0) and 30 μL distilled water; 10 μL 100 ng/μL chymotrypsin was mixed with 50 μL 100 ng/μL peptides in 1.5 mL tubes containing 10 μL 500 mM Tris-HCl (pH8.0), 10 μL 100 mM CaCl2, and 20 μL distilled water; 10 μL 100 ng/μL elastase was mixed with each 50 μL 100 ng/μL peptide in 1.5 mL tube containing 10 μL 500 mM Tris-HCl (pH8.0), 10 μL 100 mM KCl, and 20 μL distilled water. Mixtures of peptides and enzymes were incubated at 37°C for 1–4 hours, and 10 μL aliquots was set aside every 1 hour and placed on ice. 5 μL tricine sample buffer was immediately added to the aliquots and denatured at 100°C for 5 minutes to stop digestion.
(§2) Denatured samples were separated by SDS-PAGE using SuperSep Ace 15–20% tricine gel (Wako, Osaka, Japan) at 200 V for 1 hour. Coomassie Brilliant Blue staining of the gel was performed with e-Stain 2.0 Protein Staining System using eStain Protein Staining Pad (GenScript, NJ, USA). Detected bands were digitized by an image scanner and quantified with Image Studio Digits (LI-COR Biosciences, NE, USA).
(§3) Measurements were converted to the rate of degradation compared to the undegraded values. Experiments were repeated in triplicate and results are indicated as means ± SEM. Statistical significance was determined by Tukey-Kramer test and P values of <0.05 were considered significant.

in vitro = settings: isolated enzyme elastase, pH 8
Protocol: as §1, §2, §3

elastase = elastase (Sus scrofa, UniProt P00772); assay: in vitro
elastase, sequence (P00772 27-266): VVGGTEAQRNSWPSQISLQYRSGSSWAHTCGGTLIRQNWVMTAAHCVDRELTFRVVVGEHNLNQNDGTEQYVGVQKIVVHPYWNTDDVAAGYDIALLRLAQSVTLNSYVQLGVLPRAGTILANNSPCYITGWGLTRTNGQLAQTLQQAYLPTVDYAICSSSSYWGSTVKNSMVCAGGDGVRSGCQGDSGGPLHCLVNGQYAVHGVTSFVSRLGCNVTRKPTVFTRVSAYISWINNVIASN
Protocol: as §1, §2, §3

rats = system: rats; design: method as in PMID 18728100; settings: cited from earlier work
[1] = In vitro ProTx-II degradation in rat blood plasma; format: in vitro ADME; settings: 1 μg/mL in rat (male SD) blood plasma, 37°C, 24 hours, aliquots at 0, 2, 4, 8, 24 hours; LC-MS/MS; mean of n = 3
Protocol: To observe peptide degradation in vitro, blood was extracted from three 8-week-old male SD rats after anesthesia with isoflurane inhalation and the plasma was separated by centrifugation at 1,850 g for 10 minutes at 4°C. Plasma was stored on ice and used within the day of the experiment. ProTx-II was added to the plasma to make 1 μg/mL mixture and incubated at 37°C for 24 hours, withdrawing 250 μL aliquots at 0, 2, 4, 8, and 24 hours. Samples were kept at −25°C away from light until analysis.
(§4) For sample preparation, 100 μL plasma was mixed with 20 μL 50% methanol and 200 μL 4% phosphoric acid. Whole sample mixture was added to the Oasis HLB 1 cc/10 mg extraction cartridge (Waters) equilibrated with 1 mL methanol and 1 mL distilled water. The column was washed with 1 mL 5% methanol and eluted with 1 mL methanol. The elute was dried under nitrogen flow and dissolved in 100 μL solvent A/B (30% : 70%, v/v) for LC-MS/MS. 10 μL sample was analyzed by a Waters LC-MS/MS unit; ACQUITY UPLC BEH HILIC, 1.7 μm, 2.1 mm I.D. × 100 mm (Milford, MA) was used at a flow rate of 0.3 mL/min by linear gradient elution (solvent A : solvent B = 30% : 70%, v/v, solvent A: 0.1% TFA, solvent B: acetonitrile) using electrospray ionization for Xevo TQ MS (Waters, MA, USA).

[2] = In vivo ProTx-II clearance from circulation; settings: rat
Protocol: To observe ProTx-II concentration in circulation blood in vivo, three nonfasted male rats were injected with 0.1 mg/mL/kg of ProTx-II from the femoral vein under isoflurane anesthesia. 450 μL blood samples were taken from the tail vein at 0.083 (5 min), 0.25, 0.5, 1, 2, 4, 8, and 24 hours after the injection using Pasteur pipettes coated with heparin sodium. Plasma was obtained by centrifugation at 10,000 g for 3 minutes at 4°C and stored at −25°C protected from light until analysis. Animal experiments were conducted by Nemoto Science Co., Ltd. (Ibaraki, Japan) in accordance with the guideline of the animal experiment ethics committee (authorization number: 14-0024) and under approval of animal experiment ethics committee of AIST (authorization number: 10150125-A-20131029-001).
as §4

trypsin = system: trypsin
Protocol: as §1, with “Mixtures of peptides and enzymes were incubated at 37°C for 1–4 hours, and 10 μL aliquots was set aside every 1 hour and placed on ice. 5 μL tricine sample buffer was immediately added to the aliquots and denatured at 100°C for 5 minutes to stop digestion.” left out
Denatured samples were separated by SDS-PAGE using SuperSep Ace 15–20% tricine gel (Wako, Osaka, Japan) at 200 V for 1 hour. […] Detected bands were digitized by an image scanner and quantified with Image Studio Digits (LI-COR Biosciences, NE, USA).
Measurements were converted to the rate of degradation compared to the undegraded values. […] Statistical significance was determined by Tukey-Kramer test and P values of <0.05 were considered significant.

SMILES: CC(C)C[C@@H]1NC(=O)[C@@H](NC(=O)CN)CSSC[C@@H]2NC(=O)[C@@H]3CSSC[C@@H](C(=O)N[C@@H](CC(N)=O)C(=O)N[C@@H](Cc4ccccc4)C(=O)N[C@@H](CO)C(=O)N[C@@H](Cc4ccccc4)C(N)=O)NC(=O)[C@H](CC(C)C)NC(=O)[C@H](CCCCN)NC(=O)[C@H](Cc4ccccc4)NC(=O)[C@H](CC(C)C)NC(=O)[C@H](CCCCN)NC(=O)[C@H](CO)NC(=O)[C@H](CSSC[C@H](NC(=O)[C@H](CCCCN)NC(=O)[C@H](Cc4c[nH]c5ccccc45)NC(=O)[C@H](Cc4c[nH]c5ccccc45)NC(=O)[C@H](Cc4ccccc4)NC(=O)[C@H](CCC(=O)O)NC1=O)C(=O)N[C@@H](CC(N)=O)C(=O)N1CCC[C@H]1C(=O)N[C@@H](CC(N)=O)C(=O)N[C@@H](CC(=O)O)C(=O)N[C@@H](CC(=O)O)C(=O)N[C@@H](CCCCN)C(=O)N3)NC(=O)[C@H](CCCCN)NC(=O)[C@H](CC(C)C)NC(=O)[C@H](CCCCN)NC(=O)[C@@H]1CCCN1C(=O)[C@H](CCCNC(=N)N)NC2=O [GsMTx-4] (H-GCLEFWWKCNPNDDKCCRPKLKCSKLFKLCNFSF-NH2; disulfide 2-17, 9-23, 16-30)
- degradation by chymotrypsin, overall result in words (α-chymotrypsin): not degraded at all
- remaining at 4 h (in vitro): > 84%

SMILES: CSCC[C@@H]1NC(=O)CNC(=O)[C@H](CCC(=O)O)NC(=O)[C@@H]2CSSC[C@H](NC(=O)[C@@H](N)Cc3ccc(O)cc3)C(=O)N[C@@H](CCC(N)=O)C(=O)N[C@@H](CCCCN)C(=O)N[C@@H](Cc3c[nH]c4ccccc34)C(=O)N[C@@H](CCSC)C(=O)N[C@@H](Cc3c[nH]c4ccccc34)C(=O)N[C@@H]([C@@H](C)O)C(=O)N[C@H]3CSSC[C@H](NC(=O)[C@H](C(C)C)NC1=O)C(=O)N[C@@H](CCCNC(=N)N)C(=O)N[C@@H](CC(C)C)C(=O)N[C@@H](Cc1c[nH]c4ccccc14)C(=O)N[C@H](C(=O)N[C@@H](CCCCN)C(=O)N[C@@H](CCCCN)C(=O)N[C@@H](CCCCN)C(=O)N[C@@H](CC(C)C)C(=O)N[C@@H](Cc1c[nH]c4ccccc14)C(=O)O)CSSC[C@H](NC(=O)[C@H](CCCCN)NC(=O)[C@H](CCCNC(=N)N)NC(=O)[C@H](CCC(=O)O)NC(=O)[C@H](CO)NC(=O)[C@H](CC(=O)O)NC3=O)C(=O)N2 [ProTx-II]
- remaining at 4 h (α-chymotrypsin; isolated enzyme chymotrypsin): 86%
- peptide remaining undigested with elastase at 4 hours (elastase; elastase, Tris-HCl pH8.0, KCl, 37°C, 4 hours, SDS-PAGE, CBB staining, band quantification, mean of n = 3): over 84%
- mortal plasma concentration (rats; 1 mg/kg dosage): 3 µM
- dosage reported to be lethal in rats (rats): 1 mg/kg
- degradation in rat blood plasma in vitro (in words) [1]: not degraded at all; also recorded: No ProTx-II degradation was observed
- level at 8 h ([2]; male, plasma, iv, 0.1 mg/mL/kg into the femoral vein, 8 hours after administration, LC-MS/MS, n = 3, read-out: ProTx-II concentration in circulation blood at 8 hours (detection limit)): < 30 ng/mL
- time for concentration to drop to the detection limit ([2]; 0.1 mg/mL/kg into the femoral vein, detection limit 30.0 ng/mL, LC-MS/MS, n = 3): ≤ 8 h
- concentration in circulation corresponding to the detection limit of 30 ng/mL ([2]; 8 hr, molar conversion of the detection limit): 7.8 nM

SMILES: CC(C)C[C@@H]1NC(=O)[C@H](Cc2c[nH]c3ccccc23)NC(=O)[C@H](Cc2ccc(O)cc2)NC(=O)[C@H](CCCNC(=N)N)NC(=O)[C@@H](NC(=O)[C@@H](N)CCC(=O)O)CSSC[C@@H]2NC(=O)[C@@H]3CSSC[C@@H](C(=O)N[C@H](C(=O)N[C@@H](Cc4c[nH]c5ccccc45)C(=O)N[C@@H](CC(=O)O)C(=O)NCC(=O)N[C@H](C(=O)N[C@@H](Cc4ccccc4)C(=O)N[C@@H](CO)C(=O)O)[C@@H](C)O)C(C)C)NC(=O)[C@H](Cc4c[nH]c5ccccc45)NC(=O)CNC(=O)[C@H](Cc4c[nH]cn4)NC(=O)[C@H](CCCNC(=N)N)NC(=O)[C@H](CCCNC(=N)N)NC(=O)[C@H](CO)NC(=O)[C@H](CSSC[C@H](NC(=O)CNC(=O)CNC1=O)C(=O)N[C@@H](CO)C(=O)N[C@@H](C)C(=O)NCC(=O)N[C@@H](CCC(N)=O)C(=O)N[C@@H]([C@@H](C)O)C(=O)N3)NC(=O)[C@H](C(C)C)NC(=O)[C@H](CC(C)C)NC(=O)[C@H](Cc1c[nH]cn1)NC(=O)[C@H](CCCCN)NC2=O [ProTx-I]
- degradation by chymotrypsin within 1 hour (in words) (α-chymotrypsin): completely degraded
- remaining at 4 h (elastase; isolated enzyme elastase, pH 8): 22%
- degradation by elastase, overall result in words (elastase; pH 8): degraded
- digestion by trypsin within 1-hour incubation (in words) (trypsin; pH 8): almost completely digested

SMILES: CC[C@H](C)[C@H](NC(=O)CNC(=O)[C@H](CCCNC(=N)N)NC(=O)[C@H](CO)NC(=O)[C@H](C)NC(=O)[C@H](Cc1ccc(O)cc1)NC(=O)[C@H](Cc1c[nH]c2ccccc12)NC(=O)[C@H](C)NC(=O)[C@@H]1CCCN1C(=O)[C@H](CC(N)=O)NC(=O)[C@@H](NC(=O)[C@H](CC(=O)O)NC(=O)[C@@H]1CCCN1C(=O)[C@@H](NC(=O)[C@H](CCCNC(=N)N)NC(=O)[C@@H](NC(=O)[C@H](CCC(=O)O)NC(=O)[C@H](CCSC)NC(=O)[C@H](CO)NC(=O)[C@H](Cc1c[nH]cn1)NC(=O)[C@H](CCCNC(=N)N)NC(=O)[C@H](Cc1c[nH]cn1)NC(=O)[C@@H](NC(=O)[C@H](CCCNC(=N)N)NC(=O)[C@@H](N)CO)[C@@H](C)O)[C@@H](C)CC)[C@@H](C)O)[C@@H](C)CC)C(=O)N[C@@H](CCCNC(=N)N)C(=O)N1CCC[C@H]1C(=O)N[C@H](C(=O)NCC(=O)N[C@@H](CCCNC(=N)N)C(=O)N[C@@H](Cc1ccccc1)C(N)=O)C(C)C [hPRP, Human prolactin-releasing peptide]
- degradation by chymotrypsin within 1 hour (in words) (α-chymotrypsin): completely degraded
- degradation by elastase, overall result in words (elastase; elastase, pH8.0, 37°C, up to 4 hours, SDS-PAGE, CBB staining, mean of n = 3): eventually digested all
- digestion by trypsin within 1-hour incubation (in words) (trypsin; 10 μL 100 ng/μL trypsin + 50 μL 100 ng/μL peptide, Tris-HCl pH8.0, 37°C, 1 hour, SDS-PAGE, CBB staining, n = 3): almost completely digested
